Tests used:
stains, molds, and fungi [1] = test: Wood preserving efficacy on freshly cut tulip wood (dip treatment); also: key: 4 - Clean with no visible stain or mold; 3 - Trace amount of white/black fungal growth; 2 - Black and/or white fungal growth visible on all faces and ends; 1 - Heavy fungal growth
Procedure: The wood preserving efficacy of each aqueous test solution in Table 17 below was tested on freshly cut tulip wood (also known as Tulip-Popular, Yellow Popular, and Liriodendron tulipfera L.) as follows. All percentages in Table 17 are by weight. Pieces of tulip wood cut from a 4″ debarked branch were cut into pieces. Each piece was then split into 4 sections. Each section was dipped into the test solution for about 1 minute and blotted with a paper towel to remove excess liquid. The sections were sealed in a clear plastic bag and stored at ambient conditions. The sections were observed after 1, 3, 7, and 11 weeks for the growth of stains, molds, and fungi. The aqueous test solutions were prepared by mixing the active ingredient with water.

stains, molds, and fungi [2] = test: Wood preserving efficacy on freshly cut beech wood (dip treatment); conditions: beech wood pieces (Example 15); also: key: 4 - Clean with no visible stain or mold; 3 - Trace amount of white/black fungal growth; 2 - Black and/or white fungal growth visible on all faces and ends; 1 - Heavy fungal growth
Procedure: The wood preserving efficacy of each aqueous test solution in Table 18 below was tested on freshly cut beech wood (Fagus grandifolia Ehrh.) as follows. All percentages in Table 18 are by weight. A 1″ branch of a beech tree was split into two pieces. The bark was left on the pieces. Each piece was dipped into the test solution for about 1 minute and blotted with a paper towel to remove excess liquid. […] The aqueous test solutions were prepared by mixing the active ingredient with water.

[3] = tested on: Poria placenta (P. placenta), a brown rot fungus; test: Agar plate method, fungus growth inhibition; format: cell-based
Procedure: (§1) The efficacy of aqueous solutions of amine oxides and didecyldimethyl ammonium chloride to inhibit fungus growth was evaluated by the agar plate method known in the art. […] The fungi tested were Trametes versicolor (T. versicolor), a white rot fungus; Gloeophyllum trabeum (G. trabeum), a brown rot fungus which is tolerant of arsenic and phenolic type wood preservatives; Poria placenta (P. placenta), a brown rot fungus which is tolerant to copper in wood preservatives; Lentinus lepideus (L. lepideus), a brown rot fungus which is tolerant to creosote; Coniophora puteana (C. puteana), a brown rot fungus; and Chaetomium globsum (C. globsum), a soft rot fungus.

[4] = tested on: Trametes versicolor (T. versicolor), a white rot fungus; test: Agar plate method, fungus growth inhibition; format: cell-based; conditions: 50% retardation of growth
Procedure: as §1

[5] = tested on: Chaetomium globsum (C. globsum), a soft rot fungus; test: Agar plate method, fungus growth inhibition; format: cell-based
Procedure: as §1

[6] = tested on: Gloeophyllum trabeum (G. trabeum), a brown rot fungus; test: Agar plate method, fungus growth inhibition; format: cell-based
Procedure: as §1

Decay = test: Field stake test (AWPA E7), southern yellow pine stakes in ground: decay; conditions: 10 stakes, 10 = all stakes intact and free of decay, 0 = completely decayed
Procedure: (§2) 40″ by ¾″ by ¾″ pieces of southern yellow pine lumber were treated with the aqueous solution prepared in Example 1 according to the procedure described in the American Wood Preservers' Association test method E7, which is hereby incorporated by reference. The procedure is generally as follows. The southern yellow pine lumber pieces were placed in a pressure treating cylinder for about 30 minutes at about −90 kPa, injected with the aqueous solution, and pressurized to about 800 kPa for about 30 minutes. The pressure was released by the addition of air and the solution was drained.
(§3) This procedure was repeated with aqueous solutions containing 0.5 or 1.0% by weight of copper chromium arsenate (CCA) and aqueous solutions containing 0.5, 1.0, or 1.5% by weight of didecyl dimethyl ammonium chloride (DDAC).
(§4) After 11 months, the stakes were observed.

Termite = test: Field stake test (AWPA E7), southern yellow pine stakes in ground: termite attack; conditions: 10 stakes, 10 = free of termite attack, 0 = completely attacked
Procedure: as §2, §3, §4

stains, molds, and fungi [7] = test: Wood preserving efficacy on freshly cut white birch wood (dip treatment, sealed bag); design: key: 4 - Clean with no visible stain or mold; 3 - Trace amount of white/black fungal growth; 2 - Black and/or white fungal growth visible on all faces and ends; 1 - Heavy fungal growth
Procedure: The wood preserving efficacy of each aqueous test solution in Table 1 below was tested on freshly cut white birch wood as follows. All percentages in Table 1 are by weight. A branch of white birch tree measuring about 3 inches in diameter was cut into pieces about 6 inch in length. Each piece was then split into 4 sections. Each section was dipped into the test solution for about 1 minute and blotted with a paper towel to remove excess liquid. The sections were sealed in a clear plastic bag and stored at ambient conditions. The sections were observed after 1, 3, 7, and 12 weeks for the growth of stains, molds, and fungi. The aqueous test solutions were prepared by mixing the active ingredient with water.

stains, molds, and fungi [8] = test: Wood preserving efficacy on freshly cut green chestnut oak (dip treatment); design: scale not given here
[9] = tested on: Lentinus lepideus (L. lepideus), a brown rot fungus; test: Agar plate method, fungus growth inhibition; format: cell-based
Procedure: as §1

[10] = tested on: Coniophora puteana (C. puteana), a brown rot fungus; test: Agar plate method, fungus growth inhibition; format: cell-based
Procedure: as §1

[11] = tested on: G. trabeum (brown rot fungi); test: Agar dilution plate method, wood rot fungi; format: cell-based; conditions: G. trabeum, 100% growth retardation, Table 14
Procedure: (§5) The efficacy of the aqueous amine oxide solutions in Table 14 at various concentrations against the wood rot fungi T. versicolor (white rot fungi), G. trabeum (brown rot fungi), P. placenta (brown rot fungi), and C. globosum (soft rot decay fungi) were determined using the agar dilution plate method well known in the art. […] The percent retardation of the fungi was determined by the percentage change in the diameter of the fungi on the agar plate (i.e. Percent Retardation=((Diameter of Control)−(Diameter of Treated Fungi))/(Diameter of Control)*100%).

[12] = tested on: T. versicolor (white rot fungi); test: Agar dilution plate method, wood rot fungi; format: cell-based; conditions: T. versicolor, 100% growth retardation, Table 14
Procedure: as §5

[13] = tested on: C. globosum (soft rot decay fungi); test: Agar dilution plate method, wood rot fungi; format: cell-based; conditions: C. globosum, 100% growth retardation, Table 14
Procedure: as §5

[14] = tested on: P. placenta (brown rot fungi); test: Agar dilution plate method, wood rot fungi; format: cell-based; conditions: P. placenta, 100% growth retardation, Table 14
Procedure: as §5

[15] = Field Site A, listed as 0.5% (w/w) DDAC
[16] = Field Site A, listed as 1.0% (w/w) DDAC
[17] = Field Site A, listed as […] (w/w) DDAC

For `CCCCCCCCCC[N+](C)(C)CCCCCCCCCC.[Cl-]` [Didecyldimethyl ammonium chloride, didecyldimethylammonium chloride, reference compound], the “Rating of treated tulip sections vs. Time” value (stains, molds, and fungi [1]; 1 week) was 4, the “Rating of treated tulip sections vs. Time” value (stains, molds, and fungi [1]; 3 weeks) was 4 and the “Rating of treated tulip sections vs. Time” value (stains, molds, and fungi [1]; 7 weeks, listed as 0.32% Didecyldimethyl ammonium chloride) was 3.5. For the same compound, the “Rating of treated tulip sections vs. Time” value (stains, molds, and fungi [1]; 7 weeks, listed as 0.65% Didecyldimethyl ammonium chloride) was 4, the “Rating of treated tulip sections vs. Time” value (stains, molds, and fungi [1]; 11 weeks, listed as 0.32% Didecyldimethyl ammonium chloride) was 3.5 and the “Rating of treated tulip sections vs. Time” value (stains, molds, and fungi [1]; 11 weeks, listed as 0.65% Didecyldimethyl ammonium chloride) was 4. The “Rating of treated tulip sections vs. Time” value (stains, molds, and fungi [2]; 1 week) was 4, the “Rating of treated tulip sections vs. Time” value (stains, molds, and fungi [2]; 3 weeks, listed as 0.32% Didecyldimethyl ammonium chloride) was 2 and the “Rating of treated tulip sections vs. Time” value (stains, molds, and fungi [2]; 3 weeks, listed as 0.65% Didecyldimethyl ammonium chloride) was 3.5. For the same compound, the “Rating of treated tulip sections vs. Time” value (stains, molds, and fungi [2]; 7 weeks) was 2, the “Rating of treated tulip sections vs. Time” value (stains, molds, and fungi [2]; 11 weeks) was 2 and the IC50 [3] was 5-25 ppm. For the same compound, the IC50 [4] was 30-50 ppm, the IC50 [5] was 10-20 ppm and the IC50 [6] was 10-40 ppm. The “Rating after 11 Months, Decay” value (Decay; [15]) was 9.9 ± 0.3, the “Rating after 11 Months, Decay” value (Decay; [16]) was 10 and the “Rating after 11 Months, Decay” value (Decay; [17]) was 10. The “Rating after 11 Months, Decay” value (Decay; Field Site B) was 10, the “Rating after 11 Months, Termite Attack” value (Termite; [15]) was 9.3 ± 0.9 and the “Rating after 11 Months, Termite Attack” value (Termite; [16]) was 9.9 ± 0.3. For the same compound, the “Rating after 11 Months, Termite Attack” value (Termite; [17]) was 8.9 ± 1.3, the “Rating after 11 Months, Termite Attack” value (Termite; Field Site B) was 10 and the “Rating of treated white birch sections vs. Time” value (stains, molds, and fungi [7]; 1 week) was 4. For the same compound, the “Rating of treated white birch sections vs. Time” value (stains, molds, and fungi [7]; 3 weeks) was 4, the “Rating of treated white birch sections vs. Time” value (stains, molds, and fungi [7]; 7 weeks) was 3 and the “Rating of treated white birch sections vs. Time” value (stains, molds, and fungi [7]; 12 weeks) was 3. The “Rating of treated green chestnut oak sections vs. Time” value (stains, molds, and fungi [8]; 2 weeks) was 3, the “Rating of treated green chestnut oak sections vs. Time” value (stains, molds, and fungi [8]; 4 weeks) was 2 and the “Rating of treated green chestnut oak sections vs. Time” value (stains, molds, and fungi [8]; 5 weeks) was 2. The “Rating of treated green chestnut oak sections vs. Time” value (stains, molds, and fungi [8]; 9 weeks) was 1.
In the case of `CCCCCCCCCCCCCCCC[N+](C)(C)[O-]` [Hexadecyl dimethylamine oxide, hexadecyl dimethylamine oxide], the IC50 [3] is reported as 5-25 ppm, the IC50 [4] is reported as 30 ppm and the IC50 [5] is reported as 20-50 ppm. For the same compound, the IC50 [6] was 25-30 ppm, the IC50 [9] was 3 ppm and the IC50 [10] was 80 ppm. For the same compound, the “Rating of treated white birch sections vs. Time” value (stains, molds, and fungi [7]; 1 week) was 3, the “Rating of treated white birch sections vs. Time” value (stains, molds, and fungi [7]; 3 weeks) was 2 and the “Rating of treated white birch sections vs. Time” value (stains, molds, and fungi [7]; 7 weeks) was 2. The “Rating of treated white birch sections vs. Time” value (stains, molds, and fungi [7]; 12 weeks) was 2, the MIC ([11]; Gloeophyllum trabeum, read-out: MIC (ppm of amine oxides)) was > 1000 µg/mL and the MIC ([12]; Trametes versicolor, read-out: MIC (ppm of amine oxides)) was > 1000 µg/mL. The MIC ([13]; Chaetomium globosum, read-out: MIC (ppm of amine oxides)) was > 1000 µg/mL and the MIC ([14]; read-out: MIC (ppm of amine oxides)) was > 1000 µg/mL.
With Coco-dimethylamine oxide the IC50 [3] was 3-7 ppm, the IC50 [4] was 40-50 ppm and the IC50 [5] was 50-70 ppm. For the same compound, the IC50 [6] was 10-15 ppm, the IC50 [9] was 15 ppm and the IC50 [10] was 80 ppm. For the same compound, the “Rating of treated white birch sections vs. Time” value (stains, molds, and fungi [7]; 1 week) was 4, the “Rating of treated white birch sections vs. Time” value (stains, molds, and fungi [7]; 3 weeks) was 4 and the “Rating of treated white birch sections vs. Time” value (stains, molds, and fungi [7]; 7 weeks) was 3. For the same compound, the “Rating of treated white birch sections vs. Time” value (stains, molds, and fungi [7]; 12 weeks) was 2, the “MIC (ppm of amine oxides)” value [11] was 500 ppm and the “MIC (ppm of amine oxides)” value [12] was 750 ppm. The “MIC (ppm of amine oxides)” value [13] was >1000 ppm and the “MIC (ppm of amine oxides)” value [14] was 500-1000 ppm.
